Test results: patent US11192891B2, “Diazaspiro ROCK inhibitors” (BRISTOL-MYERS SQUIBB COMPANY, priority 2017, dated 2021)

Target: ROCK2 (Homo sapiens, UniProt O75116)
Test: ROCK kinase inhibition assay, FITC peptide substrate, LABCHIP 3000 readout
Format: biochemical
Conditions: 5 μM ATP, 1.5 μM peptide substrate
Summary of the method: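 Tested across a concentration range, with percent inhibition of kinase activity derived per concentration. Peptide phosphorylation, initiated by adding the Rho kinase variant (final DMSO <2%), was quenched with EDTA and substrate/product resolved by mobility shift.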

Chain of ROCK2 (O75116 whole entry, species assumed): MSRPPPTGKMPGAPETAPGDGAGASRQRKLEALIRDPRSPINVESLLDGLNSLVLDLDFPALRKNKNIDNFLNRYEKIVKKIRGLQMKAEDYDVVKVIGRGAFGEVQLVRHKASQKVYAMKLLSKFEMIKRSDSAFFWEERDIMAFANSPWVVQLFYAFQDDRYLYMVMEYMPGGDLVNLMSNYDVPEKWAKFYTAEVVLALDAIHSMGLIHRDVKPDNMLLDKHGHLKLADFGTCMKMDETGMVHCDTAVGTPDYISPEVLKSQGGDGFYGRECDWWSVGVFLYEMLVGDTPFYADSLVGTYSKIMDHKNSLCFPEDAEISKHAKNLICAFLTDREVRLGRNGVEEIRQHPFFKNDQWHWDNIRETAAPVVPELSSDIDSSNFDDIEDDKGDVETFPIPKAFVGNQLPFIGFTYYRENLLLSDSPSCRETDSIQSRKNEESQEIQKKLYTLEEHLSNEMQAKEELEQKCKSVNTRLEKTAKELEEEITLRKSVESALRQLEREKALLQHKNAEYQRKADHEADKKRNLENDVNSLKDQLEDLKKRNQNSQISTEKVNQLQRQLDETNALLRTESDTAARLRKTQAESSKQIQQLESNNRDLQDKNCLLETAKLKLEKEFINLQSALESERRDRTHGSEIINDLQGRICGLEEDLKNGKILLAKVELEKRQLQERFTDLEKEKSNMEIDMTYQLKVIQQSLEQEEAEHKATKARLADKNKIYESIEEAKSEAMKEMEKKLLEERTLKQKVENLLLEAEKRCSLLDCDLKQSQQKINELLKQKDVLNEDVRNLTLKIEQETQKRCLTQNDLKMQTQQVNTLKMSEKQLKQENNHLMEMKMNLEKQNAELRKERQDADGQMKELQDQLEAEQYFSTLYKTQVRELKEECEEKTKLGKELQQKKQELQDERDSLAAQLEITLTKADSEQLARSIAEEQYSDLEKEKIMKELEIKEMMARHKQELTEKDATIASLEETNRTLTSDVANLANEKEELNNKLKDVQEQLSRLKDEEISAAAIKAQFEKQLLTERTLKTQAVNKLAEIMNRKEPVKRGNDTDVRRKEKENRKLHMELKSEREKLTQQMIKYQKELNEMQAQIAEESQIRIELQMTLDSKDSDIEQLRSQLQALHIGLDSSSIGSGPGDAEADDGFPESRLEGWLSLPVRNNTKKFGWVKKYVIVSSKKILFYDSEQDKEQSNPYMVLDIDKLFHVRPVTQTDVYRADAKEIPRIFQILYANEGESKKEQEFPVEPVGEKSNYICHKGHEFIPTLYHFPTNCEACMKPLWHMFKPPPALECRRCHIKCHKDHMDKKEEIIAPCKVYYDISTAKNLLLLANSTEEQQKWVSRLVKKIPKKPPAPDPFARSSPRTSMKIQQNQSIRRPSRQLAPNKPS

COc1cc(N2CCC3(CCN(C(=O)c4ccc(Cn5ccnc5)cc4)CC3)C2=O)ccc1-c1cn[nH]c1 [Example 183, 8-{4-[(1H-imidazol-1-yl)methyl]benzoyl}-2-[3-methoxy-4-(1H-pyrazol-4-yl)phenyl]-2,8-diazaspiro[4.5]decan-1-one]
IC50: 23 nM

CN1CCN(c2ccc(C(=O)N3CCC4(CC3)CCN(c3ccc(-c5ccc6[nH]ncc6c5)cc3)C4=O)cc2)CC1 [Example 37, 2-[4-(1H-indazol-5-yl)phenyl]-8-[4-(4-methylpiperazin-1-yl)benzoyl]-2,8-diazaspiro[4.5]decan-1-one]
IC50: 0.5 nM

COc1cc(N2CCC3(CCN(C(=O)c4ccc(-n5ccncc5=O)cc4)CC3)C2=O)ccc1-c1cn[nH]c1 [Example 146, 2-[3-methoxy-4-(1H-pyrazol-4-yl)phenyl]-8-[4-(2-oxo-1,2-dihydropyrazin-1-yl)benzoyl]-2,8-diazaspiro[4.5]decan-1-one]
IC50: 12 nM

COc1cc(N2CCC3(CCN(C(=O)c4cccc5[nH]cnc45)CC3)C2=O)ccc1-c1cn[nH]c1 [Example 197, 8-(1H-1,3-benzodiazole-4-carbonyl)-2-[3-methoxy-4-(1H-pyrazol-4-yl)phenyl]-2,8-diazaspiro[4.5]decan-1-one]
IC50: 61 nM

COc1cc(N2CCC3(CCN(C(=O)c4ccc(N5CCN(CCOCc6ccccc6)CC5)cc4)CC3)C2=O)ccc1-c1cn[nH]c1 [Example 221, 8-(4-{4-[2-(benzyloxy)ethyl]piperazin-1-yl}benzoyl)-2-[3-methoxy-4-(1H-pyrazol-4-yl)phenyl]-2,8-diazaspiro[4.5]decan-1-one]
IC50: 0.4 nM

COc1cc(N2CCC3(CCN(C(=O)c4ccc(-n5ccnc5)cc4)CC3)C2=O)ccc1-c1cn[nH]c1 [Example 95, 8-[4-(1H-imidazol-1-yl)benzoyl]-2-[3-methoxy-4-(1H-pyrazol-4-yl)phenyl]-2,8-diazaspiro[4.5]decan-1-one]
IC50: 13 nM

COc1ccccc1C(=O)N1CCC2(CCN(c3ccc(-c4cn[nH]c4)cc3)C2=O)C1 (stereo not drawn) [Example 43, 7-(2-methoxybenzoyl)-2-[4-(1H-pyrazol-4-yl)phenyl]-2,7-diazaspiro[4.4]nonan-1-one]
IC50: 2560 nM

COc1cc(N2CCC3(CCN(C(=O)[C@@H]4C[C@H]4c4ccccc4)CC3)C2=O)ccc1-c1cn[nH]c1 [Example 91, 2-[3-methoxy-4-(1H-pyrazol-4-yl)phenyl]-8-[(1R,2R)-2-phenylcyclopropanecarbonyl]-2,8-diazaspiro[4.5]decan-1-one]
IC50: 436 nM

COc1cc(OC)c(C(=O)N2CCC3(CC2)CCN(c2ccc(-c4cn[nH]c4)c(OC)c2)C3=O)c(OC)c1 [Example 29, 2-[3-methoxy-4-(1H-pyrazol-4-yl)phenyl]-8-(2,4,6-trimethoxybenzoyl)-2,8-diazaspiro[4.5]decan-1-one]
IC50: 336 nM

COc1cc(N2CCC3(CCN(C(=O)c4ccc(-c5cncnc5)cc4)CC3)C2=O)ccc1-c1cn[nH]c1 [Example 135, 2-[3-methoxy-4-(1H-pyrazol-4-yl)phenyl]-8-[4-(pyrimidin-5-yl)benzoyl]-2,8-diazaspiro[4.5]decan-1-one]
IC50: 10 nM

COc1cc(N2CCC3(CCN(C(=O)c4ccc(N5CCOCC5)c(F)c4)CC3)C2=O)ccc1-c1cn[nH]c1 [Example 127, 8-[3-fluoro-4-(morpholin-4-yl)benzoyl]-2-[3-methoxy-4-(1H-pyrazol-4-yl)phenyl]-2,8-diazaspiro[4.5]decan-1-one]
IC50: 11.2 nM

COc1cc(N2CCC3(CCN(C(=O)c4ccc(N5CCN(Cc6ccc(C(F)(F)F)cc6)CC5)cc4)CC3)C2=O)ccc1-c1cn[nH]c1 [Example 234, 2-[3-methoxy-4-(1H-pyrazol-4-yl)phenyl]-8-[4-(4-{[4-(trifluoromethyl)phenyl]methyl}piperazin-1-yl)benzoyl]-2,8-diazaspiro[4.5]decan-1-one]
IC50: 4.1 nM

COc1cc(N2CCC3(CCN(C(=O)c4cccc5cccnc45)CC3)C2=O)ccc1-c1cn[nH]c1 [Example 149, 2-[3-methoxy-4-(1H-pyrazol-4-yl)phenyl]-8-(quinoline-8-carbonyl)-2,8-diazaspiro[4.5]decan-1-one]
IC50: 251 nM

O=C(c1ccc(OC(F)(F)F)cc1)N1CCC2(CC1)CCN(c1ccc(-c3cn[nH]c3)cc1)C2=O [Example 10, 2-[4-(1H-pyrazol-4-yl)phenyl]-8-[4-(trifluoromethoxy)benzoyl]-2,8-diazaspiro[4.5]decan-1-one]
IC50: 95 nM

COc1cc(N2CCC3(CCN(C(=O)c4cccc(C(F)(F)F)c4)CC3)C2=O)ccc1-c1cn[nH]c1 [Example 58, 2-[3-methoxy-4-(1H-pyrazol-4-yl)phenyl]-8-[3-(trifluoromethyl)benzoyl]-2,8-diazaspiro[4.5]decan-1-one]
IC50: 144 nM

COc1ccc(C(=O)N2CCC3(CC2)CCN(c2ccc(-c4cn[nH]c4)c(OC)c2)C3=O)c(Cl)c1 [Example 122, 8-(2-chloro-4-methoxybenzoyl)-2-[3-methoxy-4-(1H-pyrazol-4-yl)phenyl]-2,8-diazaspiro[4.5]decan-1-one]
IC50: 11 nM

COc1cc(N2CCC3(CCN(C(=O)c4ccc(-c5cccnc5)cc4)CC3)C2=O)ccc1-c1cn[nH]c1 [Example 158, 2-[3-methoxy-4-(1H-pyrazol-4-yl)phenyl]-8-[4-(pyridin-3-yl)benzoyl]-2,8-diazaspiro[4.5]decan-1-one]
IC50: 4.1 nM

COc1cc(N2CCC3(CCN(C(=O)c4ccc(-n5cnnn5)cc4)CC3)C2=O)ccc1-c1cn[nH]c1 [Example 118]
IC50: 57 nM

COc1cc(N2CCC3(CCN(S(=O)(=O)c4ccc5c(c4)C(=O)NC5=O)CC3)C2=O)ccc1-c1cn[nH]c1 [Example 210, 5-({2-[3-methoxy-4-(1H-pyrazol-4-yl)phenyl]-1-oxo-2,8-diazaspiro[4.5]decan-8-yl}sulfonyl)-2,3-dihydro-1H-isoindole-1,3-dione]
IC50: 2310 nM

COc1cc(N2CCC3(CCN(C(=O)c4ccc(-c5nc(C)no5)cc4)CC3)C2=O)ccc1-c1cn[nH]c1 [Example 185, 2-[3-methoxy-4-(1H-pyrazol-4-yl)phenyl]-8-[4-(3-methyl-1,2,4-oxadiazol-5-yl)benzoyl]-2,8-diazaspiro[4.5]decan-1-one]
IC50: 37 nM

COc1cc(N2CCC3(CCN(C(=O)c4cc(C)n5nc[nH]c(=O)c45)CC3)C2=O)ccc1-c1cn[nH]c1 [Example 132, 2-[3-methoxy-4-(1H-pyrazol-4-yl)phenyl]-8-{7-methyl-4-oxo-3H,4H-pyrrolo[2,1-f][1,2,4]triazine-5-carbonyl}-2,8-diazaspiro[4.5]decan-1-one]
IC50: 3 nM

COc1cc(N2CCC3(CCN(C(=O)c4ncc(OC)c5ccccc45)CC3)C2=O)ccc1-c1cn[nH]c1 [Example 90, 2-[3-methoxy-4-(1H-pyrazol-4-yl)phenyl]-8-(4-methoxyisoquinoline-1-carbonyl)-2,8-diazaspiro[4.5]decan-1-one]
IC50: 127 nM

COc1cc(N2CCC3(CCN(C(=O)c4cccs4)CC3)C2=O)ccc1-c1cn[nH]c1 [Example 89, 2-[3-methoxy-4-(1H-pyrazol-4-yl)phenyl]-8-(thiophene-2-carbonyl)-2,8-diazaspiro[4.5]decan-1-one]
IC50: 117 nM

COc1cc(N2CCC3(CCN(C(=O)c4ccc5ccn(C)c5c4)CC3)C2=O)ccc1-c1cn[nH]c1 [Example 155, 2-[3-methoxy-4-(1H-pyrazol-4-yl)phenyl]-8-(1-methyl-1H-indole-6-carbonyl)-2,8-diazaspiro[4.5]decan-1-one]
IC50: 40 nM
